This is an account of results in US20220125987A1, “WOUND CLOSURE DEVICES COMPRISING PROTOCATECHUIC ACID” (priority 2020, published 2022).

Entries after “also recorded” stand apart in the source; their conditions may differ.

In data set [1] the test system is Pseudomonas aeruginosa. Nature of the data set: Kirby-Bauer disc diffusion antimicrobial susceptibility testing. In kind it is cell-based.
In the next data set the test system is P. acnes. Described as above. In kind it is cell-based.
Data set [2] relates to Pseudomonas aeruginosa. Nature of the data set: Bacterial kill in stripped skin wound of a rodent. Type of data set: in vivo. The note with it: for bactericidal effect on stripped skin wound: topical at various calculated doses, in 48 to 96 hours; for kill of Pseudomonas aeruginosa: topical on stripped skin wound, in 48 hours, both reagents and dose. An excerpt:
Experimental Groups: There were 4 experimental groups. […] Treatment varied by reagent and dosage.

The subject of data set [3] is P. aeruginosa (ACTA 9027). Nature of the data set: Mouse tape-stripped skin wound infection model (Example 2). Type of data set: in vivo. The conditions noted are these: day five; for bacterial burden: topical aqueous 50, 100, 200 mM at two hours and daily for four days, none statistically significant; for most effective dose concentration: topical aqueous.
The test system of data set [4] is P. aeruginosa (ACTA 27853). Nature of the data set: Mouse tape-stripped skin wound infection model (Example 3). In kind it is in vivo. The note with it: for bacterial burden: 48 and 96 hours. As to the method:
Mice had back skin tape stripped and the stripped site (wound) was infected with P. aeruginosa (ACTA 27853). The test reagents were applied topically in an aqueous solution on the stripped site at two hours and daily on day 1, 2 and 3.
C3G, an anthocyanin and its main metabolite PCA were formulated and tested at several doses. The aqueous carrier was water. The C3G formulation included 100 mM and 200 mM dose concentrations and the PCA formulation included 25 and 50 mM dose concentrations.

The subject of another data set is IGF-1, TGF-β, EGF. Kind of data set: Local growth factor levels in normal (unstripped, uninfected) mouse skin (Example 4). In kind it is in vivo, mice. The conditions noted are these: 100 μM topical, normal rodent skin. Here is the method: Mice were shaved but unstrapped and uninfected (normal rodent skin). The test reagents were applied topically in an aqueous solution on the unstripped site at two hours and daily on day 1, 2 and 3. Testing reagents consisted of […] and PCA formulated at one dose, 100 μM in an aqueous solution.

Data set [5] relates to stripped skin wound infected with Pseudomonas aeruginosa (ATCC 27853). Nature of the data set: Histology of stripped, infected and treated mouse skin wound (Example 6). The note with it: 48 hours; for tissue repair as evidenced by histology: two different doses.
The subject of a further data set is MRSA. The note with it: cited from earlier work.
For a further data set, the system named is Pseudomonas. The note with it: cited from earlier work.
For data set [6] the following is noted: female, rat, in vivo.
Data set [7] deals with Staphylococcus aureus ATCC 33591 (MRSA). Kind of data set: Kirby-Bauer disc diffusion antimicrobial susceptibility testing. Type of data set: cell-based.
For data set [8] the following is noted: after ingestion; cited from earlier work.
The test system of the next data set is IGF-1, TGE-β, EGF. Nature of the data set: Growth factor levels by ELISA in stripped, infected mouse skin (Example 5). Type of data set: in vivo, mice. Here is the method: Four different conditions were used: mice had back skin tape stripped and the stripped site (wound) was infected with P. aeruginosa; mice had back skin stripped and were not infected, mice had taped stripped, infected and treated with PCA, mice were tape stripped, uninfected, and treated with PCA. When used, the PCA test reagent was applied topically in an aqueous solution on the stripped site at two hours and 24 hours.
The testing reagents consisted of and PCA formulated at one dose, 25 mM, in an aqueous solution. Levels of IGF-1, TGE-β, and EGF levels in the skin tissue at 48 hours were measured by ELISA. There were two control groups: the stripped skin and the stripped skin and infected.

In the next data set the test system is Candida albicans. Kind of data set: Kirby-Bauer disc diffusion antimicrobial susceptibility testing. Type of data set: cell-based. From the text: This example describes the method for testing the antimicrobial susceptibility of anthocyanins, anthocyanidins, or metabolites and compounds thereof. The Kirby-Bauer method of disc diffusion was used for testing, following a standard set of procedures recommended by the NCCLS. In this methodology, a set of discs saturated with either testing compounds or a control was placed on inoculated agar plates. The plates were inoculated with organisms including C. difficile, P. acnes, C. prefringens, L. casei, C. albicans, E. coli, ATTC 8739 and ATCC 43895, S. aureus, S. mutans, S. pyogenes, P. aeruginosa and K. pneumonia. The control sample was amoxicillin, an antimicrobial with very effective broad-spectrum antibiotic properties. Samples included delphinidin, pelargonidin, cyanidin CI, 28% cyanindin-3-glucoside (C3G), protocatechuic acid (PCA) and 2,4,6 Trihydroxybenzaldehyde (2,4,6 THBA).
After 18, 24, or 48 hours of incubation, depending upon the microorganism, each plate was examined. The diameters of the zones of complete inhibition were measured, including the diameter of the disc. Zones were measured to the nearest millimeter, using sliding calipers. The size of the zones of inhibition was interpreted by referring to NCCLS standard. […]
(In agar diffusion tests the substance spreads into inoculated agar from a disc or well.)

For data set [9] the following is noted: human skin; cited from earlier work.
For data set [10] the following is noted: rat, in vivo; cited from earlier work.
Setting [11] is: all tested doses (PCA 25, 50 mM; C3G 100, 200 mM).

As for `CC1(C)S[C@@H]2[C@H](NC(=O)[C@H](N)c3ccc(O)cc3)C(=O)N2[C@H]1C(=O)O` [Amoxicillin, amoxicillin, reference compound], the “activity against Pseudomonas aeruginosa” value in the data set with Pseudomonas aeruginosa [1] is given as “no effect”.

For `OC[C@H]1O[C@@H](Oc2cc3c(O)cc(O)cc3[o+]c2-c2ccc(O)c(O)c2)[C@H](O)[C@@H](O)[C@@H]1O` [C3G, Cyanidin 3-glucoside], the “activity against P. acnes” value in the data set with P. acnes was “bactericidal”. Moreover, in the data set on Pseudomonas aeruginosa [2], the “bactericidal effect on stripped skin wound” value is reported as “bactericidal” and the “kill of Pseudomonas aeruginosa” value was 10,000 fold. In addition, in [3], the bacterial burden entry is on record as “decreased the bacterial burden” and the “most effective dose concentration” value was found to be 100 mM. Moreover, the bacterial burden entry in [4] (100 mM topical) is listed as “significantly reduced the bacterial burden”. For the same compound, in data set [4] (200 mM topical), the bacterial burden result is “significantly reduced the bacterial burden”. For the same compound, in data set [4] (setting [11]), the bacterial burden entry was “decreased the bacterial burden”. The “all three local growth hormones (IGF-1, TGF-β, EGF)” value in the data set with IGF-1, TGF-β, EGF is given as “decrease of all three local growth hormones”. In data set [5] (C3G 100 mM), the dermal layer thickness result is recorded as “thicker”; the “hair follicles, cellular lining” value is “single and double cellular lining”; the inflammation result is “inflammation in the dermis and muscular layer and below”; the surface cellularity entry is “multiple cellular covering of the surface”. Also, the vascularity entry in [5] (C3G 100 mM) was “prominent”. Also, in [5] (C3G 200 mM), the dermal layer thickness result is “thickened”; the “hair follicles, cellular lining” value is “single and double cellular lining”; the inflammation entry is “inflammation in the dermis and muscular layer”; the surface cellularity result was “multiple cells thick”. Further, the vascularity entry in [5] (C3G 200 mM) is on record as “increased”. In addition, the “tissue repair as evidenced by histology” value in data set [5] is given as “stimulated tissue repair”.

Take `O=C(O)c1ccc(O)c(O)c1` [PCA, 3,4 dihydroxybenzoic acid]: the “activity against P. acnes” value with P. acnes is reported as “bactericidal”. Also, in the data set with MRSA, the “biofilm destruction, MRSA” value was “biofilm destroyer”. Moreover, the “activity against Pseudomonas aeruginosa” value in the data set with Pseudomonas aeruginosa [1] is on record as “some effectiveness”. In the data set on Pseudomonas aeruginosa [2], the “bactericidal effect on stripped skin wound” value was “bactericidal” and the “kill of Pseudomonas aeruginosa” value is 10,000 fold. In addition, in data set [3], the bacterial burden result is given as “decreased the bacterial burden” and the “most effective dose concentration” value was determined as 50 mM. Moreover, in the data set with Pseudomonas, the “biofilm destruction, Pseudomonas” value was “biofilm destroyer”. Moreover, in [4] (25 mM topical), the “statistical significance of bacterial burden reduction” value is on record as “statistically significant at 48 hours” and the bacterial burden entry was “reduced the bacterial burden at both time periods”. Moreover, the bacterial burden result in [4] (setting [11]) is on record as “decreased the bacterial burden”. In [6], the “human relative dose to exceed safety” value is given as 350,000 milligrams per day. Also, in [7], the “activity against Staphylococcus aureus ATCC 33591 (MRSA)” value is listed as “effective”. Further, in [5] (PCA 25 mM), the “collagen between epidermis and dermis” value was “collagen proliferation between the epidermis and dermis; also recorded: collagen layer formation between the epidermis and dermis”; the dermal layer thickness result is “thickened”; the “hair follicles, cellular lining” value is on record as “prominent with multiple cellular lining”; the inflammation result is “abundant inflammation”. Besides, in [5] (PCA 25 mM), the surface cellularity result was “abundant and multiple cell layers”; the vascularity result is “moderate vascularity, but less than that seen in infected untreated group”. Moreover, in data set [5] (PCA 50 mM), the dermal layer thickness result is on record as “thicker”; the “hair follicles, cellular lining” value was “double layer of cells”; the inflammation entry was “increased in the dermis and below the muscle layer”; the surface cellularity result is on record as “covered with multiple layers of cells”. Moreover, the vascularity entry in [5] (PCA 50 mM) is given as “increased vascularity”. In data set [5], the “tissue repair as evidenced by histology” value is on record as “stimulated tissue repair”. In addition, in data set [8], the “duration of metabolism prior to excretion in the urine and feces” value is listed as “eight”. Further, in the data set on IGF-1, TGE-β, EGF (25 mM topical at 2 and 24 hours, stripped and infected skin, 48 hours), the IGF-1 production entry is recorded as “optimizes the IGF-1 production”. Besides, the local growth hormones result in the data set on IGF-1, TGE-β, EGF (25 mM topical, stripped and infected skin) is on record as “optimizes the local growth hormones”. Besides, the EGF response level entry with IGF-1, TGE-β, EGF (25 mM topical, stripped, infected and treated wound vs other groups, 48 hours) is recorded as “lowest”. In addition, in the data set on Candida albicans, the “susceptibility of Candida albicans” value is reported as “susceptible”. The skin irritation entry in [9] is on record as “no skin irritation”. For the same compound, in data set [10], the toxicity entry is “greater than 5000 mg/kg body weight”.
